Reference: US20200187502A1, “MICROBIOCIDAL OXADIAZOLE DERIVATIVES” (SYNGENTA PARTICIPATIONS AG, priority 2017, published 2020)

Experiments:
Phakopsora pachyrhizi = test: Fungicidal activity, soybean leaf disc preventative (Asian soybean rust); type: in vivo; settings: foliar, 200 ppm in the applied formulation, soybean leaf disks, compared to untreated control, 12 to 14 days after application, read-out: disease control
Method: Leaf disks or leaf segments of various plant species are cut from plants grown in a greenhouse. The cut leaf disks or segments are placed in multiwell plates (24-well format) onto water agar. The leaf disks are sprayed with a test solution before (preventative) or after (curative) inoculation. Compounds to be tested are prepared as DMSO solutions (max. 10 mg/ml) which are diluted to the appropriate concentration with 0.025% Tween20 just before spraying. The inoculated leaf disks or segments are incubated under defined conditions (temperature, relative humidity, light, etc.) according to the respective test system. A single evaluation of disease level is carried out 3 to 14 days after inoculation, depending on the pathosystem. Percent disease control relative to the untreated check leaf disks or segments is then calculated.
Soybean leaf disks are placed on water agar in multiwell plates (24-well format) and sprayed with the formulated test compound diluted in water. One day after application leaf discs are inoculated by spraying a spore suspension on the lower leaf surface. After an incubation period in a climate cabinet of 24-36 hours in darkness at 20° C. and 75% rh leaf disc are kept at 20° C. with 12 h light/day and 75% rh. The activity of a compound is assessed as percent disease control compared to untreated when an appropriate level of disease damage appears in untreated check leaf disks (12 to 14 days after application).
The following compounds at 200 ppm in the applied formulation give at least 80% disease control in this test when compared to untreated control leaf disks under the same conditions, which show extensive disease development.

[1] = test system: Puccinia recondita f. Sp. Tritici; test: Fungicidal activity, wheat leaf disc preventative (brown rust); type: in vivo; settings: foliar, 200 ppm in the applied formulation, wheat leaf segments cv. Kanzler, compared to untreated control, 7 to 9 days after application, read-out: disease control
Outline: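 Preventative leaf-segment test: spray application of diluted formulated compound on wheat cv. Kanzler, spore inoculation after 1 day. Percent control relative to untreated segments rated 7 to 9 days post-application, with incubation at 19° C, 75% relative humidity, 12 h photoperiod.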

[2] = test system: Glomerella lacenarium (Colletotrichum lacenarium); test: Fungicidal activity, liquid culture, cucumber preventative (anthracnose); type: cell-based; settings: 20 ppm in the applied formulation, liquid culture in PDB, inhibition of growth measured photometrically 3 to 4 days after application, compared to untreated control, read-out: disease control
Outline: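 Test compound in DMSO is placed in a microtiter plate, then potato dextrose broth containing conidia from cryogenic storage is added. Incubation runs at 24° C., and growth inhibition is read photometrically after 3 to 4 days.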

[3] = test system: Puccinia recondita f. Sp. Tritici; test: Fungicidal activity, wheat leaf disc curative (brown rust); type: in vivo; settings: foliar, 200 ppm in the applied formulation, wheat leaf segments cv. Kanzler, curative (applied 1 day after inoculation), compared to untreated control, 6 to 8 days after application, read-out: disease control
Outline: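 Segments of wheat (cultivar Kanzler) sit on agar and are spore-inoculated first; after one day in darkness at 19° C and 75% RH the diluted formulated compound is sprayed on. A 12 h photoperiod follows at the same temperature and humidity before disease is scored against untreated controls.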

CCN(Cc1ccc(-c2noc(C(F)(F)F)n2)s1)C(=O)CCCOC [Compound 4.28, N-ethyl-4-methoxy-N-[[5-[5-(trifluoromethyl)-1,2,4-oxadiazol-3-yl]-2-thienyl]methyl]butanamide]
≥ 80%: pest or weed control at 200 ppm (Phakopsora pachyrhizi) | pest or weed control at 200 ppm [1] | inhibition of growth at 20 ppm [2] | pest or weed control at 200 ppm [3]

O=C(CC(F)(F)F)NCc1ccc(-c2noc(C(F)(F)F)n2)s1 [Compound 2.12, 3,3,3-trifluoro-N-[[5-[5-(trifluoromethyl)-1,2,4-oxadiazol-3-yl]-2-thienyl]methyl]propanamide]
≥ 80%: pest or weed control at 200 ppm (Phakopsora pachyrhizi) | pest or weed control at 200 ppm [1] | inhibition of growth at 20 ppm [2] | pest or weed control at 200 ppm [3]

CCC(C)C(=O)N(Cc1ccc(-c2noc(C(F)(F)F)n2)s1)OC (stereo not shown) [Compound 1.19, N-methoxy-2-methyl-N-[[5-[5-(trifluoromethyl)-1,2,4-oxadiazol-3-yl]-2-thienyl]methyl]butanamide]
≥ 80%: pest or weed control at 200 ppm (Phakopsora pachyrhizi) | pest or weed control at 200 ppm [1] | inhibition of growth at 20 ppm [2] | pest or weed control at 200 ppm [3]

CCN(Cc1ccc(-c2noc(C(F)(F)F)n2)s1)S(C)(=O)=O [Compound 6.16, N-ethyl-N-[[5-[5-(trifluoromethyl)-1,2,4-oxadiazol-3-yl]-2-thienyl]methyl]methanesulfonamide]
≥ 80%: pest or weed control at 200 ppm (Phakopsora pachyrhizi) | pest or weed control at 200 ppm [1] | inhibition of growth at 20 ppm [2] | pest or weed control at 200 ppm [3]

CNC(=O)N(Cc1ccc(-c2noc(C(F)(F)F)n2)s1)OCC(F)F [Compound 4.19, 1-(2,2-difluoroethoxy)-3-methyl-1-[[5-[5-(trifluoromethyl)-1,2,4-oxadiazol-3-yl]-2-thienyl]methyl]urea]
≥ 80%: pest or weed control at 200 ppm (Phakopsora pachyrhizi) | pest or weed control at 200 ppm [1] | inhibition of growth at 20 ppm [2] | pest or weed control at 200 ppm [3]

CON(Cc1ccc(-c2noc(C(F)(F)F)n2)s1)C(=O)N1CCC2(CC2)C1 [Compound 1.58, N-methoxy-N-[[5-[5-(trifluoromethyl)-1,2,4-oxadiazol-3-yl]-2-thienyl]methyl]-5-azaspiro[2.4]heptane-5-carboxamide]
≥ 80%: pest or weed control at 200 ppm (Phakopsora pachyrhizi) | pest or weed control at 200 ppm [1] | inhibition of growth at 20 ppm [2] | pest or weed control at 200 ppm [3]

CON(Cc1ccc(-c2noc(C(F)(F)F)n2)s1)C(=O)CC(F)(F)F [Compound 1.18, 3,3,3-trifluoro-N-methoxy-N-[[5-[5-(trifluoromethyl)-1,2,4-oxadiazol-3-yl]-2-thienyl]methyl]propanamide]
≥ 80%: pest or weed control at 200 ppm (Phakopsora pachyrhizi) | pest or weed control at 200 ppm [1] | inhibition of growth at 20 ppm [2] | pest or weed control at 200 ppm [3]

COC(C)C(=O)N(C)Cc1ccc(-c2noc(C(F)(F)F)n2)s1 (stereo not shown) [Compound 4.15, 2-methoxy-N-methyl-N-[[5-[5-(trifluoromethyl)-1,2,4-oxadiazol-3-yl]-2-thienyl]methyl]propanamide]
≥ 80%: pest or weed control at 200 ppm (Phakopsora pachyrhizi) | pest or weed control at 200 ppm [1] | inhibition of growth at 20 ppm [2] | pest or weed control at 200 ppm [3]

CCN(Cc1ccc(-c2noc(C(F)(F)F)n2)s1)C(=O)C1CC1 [Compound 5.4, N-ethyl-N-[[5-[5-(trifluoromethyl)-1,2,4-oxadiazol-3-yl]-2-thienyl]methyl]cyclopropanecarboxamide]
≥ 80%: pest or weed control at 200 ppm (Phakopsora pachyrhizi) | pest or weed control at 200 ppm [1] | inhibition of growth at 20 ppm [2] | pest or weed control at 200 ppm [3]

COCCCC(=O)N(Cc1ccc(-c2noc(C(F)(F)F)n2)s1)OC [Compound 1.23, N,4-dimethoxy-N-[[5-[5-(trifluoromethyl)-1,2,4-oxadiazol-3-yl]-2-thienyl]methyl]butanamide]
≥ 80%: pest or weed control at 200 ppm (Phakopsora pachyrhizi) | pest or weed control at 200 ppm [1] | inhibition of growth at 20 ppm [2] | pest or weed control at 200 ppm [3]

CCN(Cc1ccc(-c2noc(C(F)(F)F)n2)s1)C(=O)N(C)CC#N [Compound 4.70, 1-(cyanomethyl)-3-ethyl-1-methyl-3-[[5-[5-(trifluoromethyl)-1,2,4-oxadiazol-3-yl]-2-thienyl]methyl]urea]
≥ 80%: pest or weed control at 200 ppm (Phakopsora pachyrhizi) | pest or weed control at 200 ppm [1] | inhibition of growth at 20 ppm [2] | pest or weed control at 200 ppm [3]

CN(Cc1ccc(-c2noc(C(F)(F)F)n2)s1)C(=O)C1CCC1 [Compound 5.20, N-methyl-N-[[5-[5-(trifluoromethyl)-1,2,4-oxadiazol-3-yl]-2-thienyl]methyl]cyclobutanecarboxamide]
≥ 80%: pest or weed control at 200 ppm (Phakopsora pachyrhizi) | pest or weed control at 200 ppm [1] | inhibition of growth at 20 ppm [2] | pest or weed control at 200 ppm [3]

COCCC(=O)N(Cc1ccc(-c2noc(C(F)(F)F)n2)s1)OC [Compound 1.11, N,3-dimethoxy-N-[[5-[5-(trifluoromethyl)-1,2,4-oxadiazol-3-yl]-2-thienyl]methyl]propanamide]
≥ 80%: pest or weed control at 200 ppm (Phakopsora pachyrhizi) | pest or weed control at 200 ppm [1] | inhibition of growth at 20 ppm [2] | pest or weed control at 200 ppm [3]

CC(C)NC(=O)N(C)Cc1ccc(-c2noc(C(F)(F)F)n2)s1 [Compound 4.17, 3-isopropyl-1-methyl-1-[[5-[5-(trifluoromethyl)-1,2,4-oxadiazol-3-yl]-2-thienyl]methyl]urea]
≥ 80%: pest or weed control at 200 ppm (Phakopsora pachyrhizi) | pest or weed control at 200 ppm [1] | inhibition of growth at 20 ppm [2] | pest or weed control at 200 ppm [3]

CC1CC1C(=O)N(C)Cc1ccc(-c2noc(C(F)(F)F)n2)s1 (stereo not shown) [Compound 5.25, N,2-dimethyl-N-[[5-[5-(trifluoromethyl)-1,2,4-oxadiazol-3-yl]-2-thienyl]methyl]cyclopropanecarboxamide]
≥ 80%: pest or weed control at 200 ppm (Phakopsora pachyrhizi) | pest or weed control at 200 ppm [1] | inhibition of growth at 20 ppm [2] | pest or weed control at 200 ppm [3]

CCC(C)C(=O)N(C)Cc1ccc(-c2noc(C(F)(F)F)n2)s1 (stereo not shown) [Compound 4.37, N,2-dimethyl-N-[[5-[5-(trifluoromethyl)-1,2,4-oxadiazol-3-yl]-2-thienyl]methyl]butanamide]
≥ 80%: pest or weed control at 200 ppm (Phakopsora pachyrhizi) | pest or weed control at 200 ppm [1] | inhibition of growth at 20 ppm [2] | pest or weed control at 200 ppm [3]

CCN(Cc1ccc(-c2noc(C(F)(F)F)n2)s1)S(=O)(=O)CCOC [Compound 6.12, N-ethyl-2-methoxy-N-[[5-[5-(trifluoromethyl)-1,2,4-oxadiazol-3-yl]-2-thienyl]methyl]ethanesulfonamide]
≥ 80%: pest or weed control at 200 ppm (Phakopsora pachyrhizi) | pest or weed control at 200 ppm [1] | inhibition of growth at 20 ppm [2]

CC(=O)N(Cc1ccc(-c2noc(C(F)(F)F)n2)s1)C(C)C [Compound 4.51, N-isopropyl-N-[[5-[5-(trifluoromethyl)-1,2,4-oxadiazol-3-yl]-2-thienyl]methyl]acetamide]
≥ 80%: pest or weed control at 200 ppm (Phakopsora pachyrhizi) | inhibition of growth at 20 ppm [2] | pest or weed control at 200 ppm [3]

CCC(=O)N(Cc1ccc(-c2noc(C(F)(F)F)n2)s1)C(C)C [Compound 4.46, N-isopropyl-N-[[5-[5-(trifluoromethyl)-1,2,4-oxadiazol-3-yl]-2-thienyl]methyl]propanamide]
≥ 80%: pest or weed control at 200 ppm (Phakopsora pachyrhizi) | inhibition of growth at 20 ppm [2] | pest or weed control at 200 ppm [3]

CN(Cc1ccc(-c2noc(C(F)(F)F)n2)s1)S(=O)(=O)Cc1ccccc1 [Compound 6.22, N-methyl-1-phenyl-N-[[5-[5-(trifluoromethyl)-1,2,4-oxadiazol-3-yl]-2-thienyl]methyl]methanesulfonamide]
≥ 80%: pest or weed control at 200 ppm (Phakopsora pachyrhizi) | pest or weed control at 200 ppm [1] | inhibition of growth at 20 ppm [2]

CON(Cc1ccc(-c2noc(C(F)(F)F)n2)s1)C(=O)C(C)C [Compound 1.26, N-methoxy-2-methyl-N-[[5-[5-(trifluoromethyl)-1,2,4-oxadiazol-3-yl]-2-thienyl]methyl]propanamide]
≥ 80%: pest or weed control at 200 ppm (Phakopsora pachyrhizi) | pest or weed control at 200 ppm [1] | inhibition of growth at 20 ppm [2]

CCN(Cc1ccc(-c2noc(C(F)(F)F)n2)s1)C(=O)CC(F)(F)F [Compound 4.30, N-ethyl-3,3,3-trifluoro-N-[[5-[5-(trifluoromethyl)-1,2,4-oxadiazol-3-yl]-2-thienyl]methyl]propanamide]
≥ 80%: pest or weed control at 200 ppm (Phakopsora pachyrhizi) | inhibition of growth at 20 ppm [2] | pest or weed control at 200 ppm [3]
